Test results published in patent publication US20120270237A9, “METHODS FOR THE IDENTIFICATION OF KINASE INTERACTING MOLECULES AND FOR THE PURIFICATION OF KINASE PROTEINS” (Cellzone AG, priority 2009, published 2012).

Assays:
Test in all cases: Kinobeads competition binding with immobilized CZC25342, mixed HeLa placenta lysates (Example 5, Table 7)
[1] = target: T1, kinases from mixed HeLa placenta lysates (Homo sapiens, UniProt Q13163); settings: kinase MAP2K5; 10 μM free compound; HeLa Placenta lysate mix
T1 construct: capturing and identification of kinases from mixed HeLa placenta lysates; endogenous in cells; host or cells: mixed lysate of HeLa cells and placenta tissue
Method: (§1) To one aliquot of cell lysate 10 μM of the free compound (FIG. 2, CZC25342) was added and allowed to bind to proteins in the lysate. Then the affinity matrix with the immobilized compound was added to capture proteins that were not interacting with the previously added free compound. Beads were separated from the lysate and bead bound proteins were eluted in SDS sample buffer and subsequently separated by SDS-Polyacrylamide gel electrophoresis (FIG. 11). Suitable gel bands were cut out and subjected to in-gel proteolytic digestion with trypsin. The second lysate aliquot was processed identically, however no free compound was added (DMSO solvent control). Peptides originating from samples 1 and 2 were labeled with iTRAQ reagents (iTRAQ 114 and iTRAQ 117) and the combined samples were analyzed with a nano-flow liquid chromatography system coupled online to a tandem mass spectrometer (LC-MS/MS) experiment followed by iTRAQ reporter ion quantification in the MS/MS spectra as described in Example 2. The identified kinases are shown in Table 7 including the percent competition values for the sample to which 10 μM free compound had been added. In total of 83 different kinases were identified and competed by different degrees.

[2] = target: T2, kinases from mixed HeLa placenta lysates (Homo sapiens, UniProt P07947); settings: kinase YES; 10 μM free compound; HeLa Placenta lysate mix
T2 construct: capturing and identification of kinases from mixed HeLa placenta lysates; endogenous in cells; host or cells: mixed lysate of HeLa cells and placenta tissue
Method: as §1

[3] = target: T3, kinases from mixed HeLa placenta lysates (Homo sapiens, UniProt P17252); settings: kinase PKCa; 10 μM free compound; HeLa Placenta lysate mix
T3 construct: capturing and identification of kinases from mixed HeLa placenta lysates; endogenous in cells; host or cells: mixed lysate of HeLa cells and placenta tissue
Method: as §1

[4] = target: T4, kinases from mixed HeLa placenta lysates (Homo sapiens, UniProt P43405); settings: kinase SYK; 10 μM free compound; HeLa Placenta lysate mix
T4 construct: capturing and identification of kinases from mixed HeLa placenta lysates; endogenous in cells; host or cells: mixed lysate of HeLa cells and placenta tissue
Method: as §1

[5] = target: T5, kinases from mixed HeLa placenta lysates (Homo sapiens, UniProt P54646); settings: kinase AMPKa2; 10 μM free compound; HeLa Placenta lysate mix
T5 construct: capturing and identification of kinases from mixed HeLa placenta lysates; endogenous in cells; host or cells: mixed lysate of HeLa cells and placenta tissue
Method: as §1

[6] = target: T6, kinases from mixed HeLa placenta lysates (Homo sapiens, UniProt P36897); settings: kinase TGFbR1; 10 μM free compound; HeLa Placenta lysate mix
T6 construct: capturing and identification of kinases from mixed HeLa placenta lysates; endogenous in cells; host or cells: mixed lysate of HeLa cells and placenta tissue
Method: as §1

[7] = target: T7, kinases from mixed HeLa placenta lysates (Homo sapiens, UniProt Q5TCX8); settings: kinase MLK4; 10 μM free compound; HeLa Placenta lysate mix
T7 construct: capturing and identification of kinases from mixed HeLa placenta lysates; endogenous in cells; host or cells: mixed lysate of HeLa cells and placenta tissue
Method: as §1

[8] = target: T8, kinases from mixed HeLa placenta lysates (Homo sapiens, UniProt P30291); settings: kinase Wee1; 10 μM free compound; HeLa Placenta lysate mix
T8 construct: capturing and identification of kinases from mixed HeLa placenta lysates; endogenous in cells; host or cells: mixed lysate of HeLa cells and placenta tissue
Method: as §1

[9] = target: T9, kinases from mixed HeLa placenta lysates (Homo sapiens, UniProt O43353); settings: kinase RIPK2; 10 μM free compound; HeLa Placenta lysate mix
T9 construct: capturing and identification of kinases from mixed HeLa placenta lysates; endogenous in cells; host or cells: mixed lysate of HeLa cells and placenta tissue
Method: as §1

[10] = target: T10, kinases from mixed HeLa placenta lysates (Homo sapiens, UniProt O75460); settings: kinase IRE1; 10 μM free compound; HeLa Placenta lysate mix
T10 construct: capturing and identification of kinases from mixed HeLa placenta lysates; endogenous in cells; host or cells: mixed lysate of HeLa cells and placenta tissue
Method: as §1

[11] = target: T11, kinases from mixed HeLa placenta lysates (Homo sapiens, UniProt Q16513); settings: kinase PKN2; 10 μM free compound; HeLa Placenta lysate mix
T11 construct: capturing and identification of kinases from mixed HeLa placenta lysates; endogenous in cells; host or cells: mixed lysate of HeLa cells and placenta tissue
Method: as §1

[12] = target: T12, kinases from mixed HeLa placenta lysates (Homo sapiens, UniProt Q96GD4); settings: kinase AurB; 10 μM free compound; HeLa Placenta lysate mix
T12 construct: capturing and identification of kinases from mixed HeLa placenta lysates; endogenous in cells; host or cells: mixed lysate of HeLa cells and placenta tissue
Method: as §1

[13] = target: T13, kinases from mixed HeLa placenta lysates (Homo sapiens, UniProt P06241); settings: kinase FYN; 10 μM free compound; HeLa Placenta lysate mix
T13 construct: capturing and identification of kinases from mixed HeLa placenta lysates; endogenous in cells; host or cells: mixed lysate of HeLa cells and placenta tissue
Method: as §1

[14] = target: T14, kinases from mixed HeLa placenta lysates (Homo sapiens, UniProt Q9NWZ3); settings: kinase IRAK4; 10 μM free compound; HeLa Placenta lysate mix
T14 construct: capturing and identification of kinases from mixed HeLa placenta lysates; endogenous in cells; host or cells: mixed lysate of HeLa cells and placenta tissue
Method: as §1

[15] = target: T15, kinases from mixed HeLa placenta lysates (Homo sapiens, UniProt Q16584); settings: kinase MLK3; 10 μM free compound; HeLa Placenta lysate mix
T15 construct: capturing and identification of kinases from mixed HeLa placenta lysates; endogenous in cells; host or cells: mixed lysate of HeLa cells and placenta tissue
Method: as §1

[16] = target: T16, kinases from mixed HeLa placenta lysates (Homo sapiens, UniProt Q13555); settings: kinase CaMK2g; 10 μM free compound; HeLa Placenta lysate mix
T16 construct: capturing and identification of kinases from mixed HeLa placenta lysates; endogenous in cells; host or cells: mixed lysate of HeLa cells and placenta tissue
Method: as §1

[17] = target: T17, kinases from mixed HeLa placenta lysates (Homo sapiens, UniProt P35968); settings: kinase KDR; 10 μM free compound; HeLa Placenta lysate mix
T17 construct: capturing and identification of kinases from mixed HeLa placenta lysates; endogenous in cells; host or cells: mixed lysate of HeLa cells and placenta tissue
Method: as §1

[18] = target: T18, kinases from mixed HeLa placenta lysates (Homo sapiens, UniProt P07948); settings: kinase LYN; 10 μM free compound; HeLa Placenta lysate mix
T18 construct: capturing and identification of kinases from mixed HeLa placenta lysates; endogenous in cells; host or cells: mixed lysate of HeLa cells and placenta tissue
Method: as §1

[19] = target: T19, kinases from mixed HeLa placenta lysates (Homo sapiens, UniProt O75676); settings: kinase MSK2; 10 μM free compound; HeLa Placenta lysate mix
T19 construct: capturing and identification of kinases from mixed HeLa placenta lysates; endogenous in cells; host or cells: mixed lysate of HeLa cells and placenta tissue
Method: as §1

[20] = target: T20, kinases from mixed HeLa placenta lysates (Homo sapiens, UniProt P07332); settings: kinase FES; 10 μM free compound; HeLa Placenta lysate mix
T20 construct: capturing and identification of kinases from mixed HeLa placenta lysates; endogenous in cells; host or cells: mixed lysate of HeLa cells and placenta tissue
Method: as §1

[21] = target: T21, kinases from mixed HeLa placenta lysates (Homo sapiens, UniProt Q9NSY1); settings: kinase BIKE; 10 μM free compound; HeLa Placenta lysate mix
T21 construct: capturing and identification of kinases from mixed HeLa placenta lysates; endogenous in cells; host or cells: mixed lysate of HeLa cells and placenta tissue
Method: as §1

[22] = target: T22, kinases from mixed HeLa placenta lysates (Homo sapiens, UniProt Q9H422); settings: kinase HIPK3; 10 μM free compound; HeLa Placenta lysate mix
T22 construct: capturing and identification of kinases from mixed HeLa placenta lysates; endogenous in cells; host or cells: mixed lysate of HeLa cells and placenta tissue
Method: as §1

[23] = target: T23, kinases from mixed HeLa placenta lysates (Homo sapiens, UniProt P19784); settings: kinase CK2a2; 10 μM free compound; HeLa Placenta lysate mix
T23 construct: capturing and identification of kinases from mixed HeLa placenta lysates; endogenous in cells; host or cells: mixed lysate of HeLa cells and placenta tissue
Method: as §1

[24] = target: T24, kinases from mixed HeLa placenta lysates (Homo sapiens, UniProt Q13557); settings: kinase CaMK2d; 10 μM free compound; HeLa Placenta lysate mix
T24 construct: capturing and identification of kinases from mixed HeLa placenta lysates; endogenous in cells; host or cells: mixed lysate of HeLa cells and placenta tissue
Method: as §1

CS(=O)(=O)Nc1ccccc1Nc1nc(Nc2cccc(OCCN)c2)ncc1F [CZC25342, N-(2-(2-(3-(2-aminoethoxy)phenylamino)-5-fluoropyrimidin-4-ylamino)phenyl)methanesulfonamide]
Competition % MAP2K5 [1]: 87.4%
Competition % YES [2]: 91.7%
Competition % PKCa [3]: 96.4%
Competition % SYK [4]: 94.8%
Competition % AMPKa2 [5]: 97.1%
Competition % TGFbR1 [6]: 95.6%
Competition % MLK4 [7]: 85.8%
Competition % Wee1 [8]: 97.5%
Competition % RIPK2 [9]: 94.4%
Competition % IRE1 [10]: 83.4%
Competition % PKN2 [11]: 98%
Competition % AurB [12]: 93.1%
Competition % FYN [13]: 93.2%
Competition % IRAK4 [14]: 95.6%
Competition % MLK3 [15]: 94.9%
Competition % CaMK2g [16]: 75.2%
Competition % KDR [17]: 92.5%
Competition % LYN [18]: 83.1%
Competition % MSK2 [19]: 93.2%
Competition % FES [20]: 96.9%
Competition % BIKE [21]: 94.8%
Competition % HIPK3 [22]: 95.4%
Competition % CK2a2 [23]: 95.4%
Competition % CaMK2d [24]: 40.6%
